Target: T1, Ubiquitin-conjugating enzyme E2 N (Homo sapiens, UniProt P61088)
T1 sequence (P61088 whole entry): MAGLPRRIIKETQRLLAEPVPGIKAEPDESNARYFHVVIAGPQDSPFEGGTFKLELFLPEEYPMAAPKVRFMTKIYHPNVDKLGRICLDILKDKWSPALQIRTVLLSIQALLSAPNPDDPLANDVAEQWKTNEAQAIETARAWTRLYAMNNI
Experiment: concentration-dependent UBC13 chain formation blockade – biochemical, TR-FRET, reconfirmation, dose response (AID 493182)

Row | IC50 [µM] | SMILES
1 | 19.3 | C#CCOCCOCCOCCNc1nc(N2CCN(C(=O)[C@H](CCCN=C(N)N)n3cc(C(N)[C@H](C)CC)nn3)CC2)nc(N2CCN(C(=O)[C@H](CCCN=C(N)N)n3cc(C(N)[C@@H](C)CC)nn3)CC2)n1 (stereo partly drawn) [MLS002473475]
2 | 2.18 | C#CCOCCOCCOCCNc1nc(N2CCN(C(=O)CCCCCCCCCCNC(=O)[C@H](CCCCN)n3cc(C)nn3)CC2)nc(N2CCN(C(=O)CCCCCCCCCCNC(=O)[C@H](CCCN=C(N)N)n3cc(C[C@@H](C)CC)nn3)CC2)n1 [MLS002153614]
3 | 15.3 | C#CCOCCOCCOCCNc1nc(N2CCN(C(=O)C([C@@H](C)CC)n3cc(C(N)COC(=O)C(F)(F)F)nn3)CC2)nc(N2CCN(C(=O)[C@H](CCCCN)n3cc(C(N)CC(C)C)nn3)CC2)n1 (stereo partly drawn) [SMR000453712]
4 | 8.55 | CCOC(=O)C1C(COC(=O)c2cc(OC)c(OC)c(OC)c2)=NC(=O)NC1C (stereo not drawn) [MLS001161811]

Second part, the compound before the results:

Row | SMILES | IC50 [µM]
5 | C#CCOCCOCCOCCNc1nc(N2CCN(C(=O)[C@H](Cc3cc4ccccc4[nH]3)n3cc([C@@H](N)CC(C)C)nn3)CC2)nc(N2CCN(C(=O)[C@H](Cc3cc4ccccc4[nH]3)n3cc([C@@H](N)CC(C)C)nn3)CC2)n1 [LW-LW] | 6.4
6 | O=C1Nc2ccc([N+](=O)[O-])cc2C1=NNC(=S)NCC1CCCO1 (stereo not drawn) | 0.664
7 | Cc1cc(C)c2c(c1)=C(NNC(=S)NCC1CCCO1)C(=O)N=2 (stereo not drawn) | 0.509
8 | C#CCOCCOCCOCCNc1nc(N2CCN(C(=O)CCCCCCCCCCNC(=O)Cn3cc(CCCCCN)nn3)CC2)nc(N2CCN(C(=O)CCCCCCCCCCNC(=O)[C@H]([C@@H](C)CC)n3cc(CCCCN=C(N)N)nn3)CC2)n1 [KG-RI] | 2.11

Reference: BindingDB's records for doi:10.7270/Q2SB4462 (Burnham Center For Chemical Genomics, 2011)
